Patent publication US10913738B2 (BRISTOL-MYERS SQUIBB COMPANY, priority 2017, dated 2021)
Read-outs that look alike come from different tables or passages of the source.

Columns and labels:
[1] = tested on: MLKL phosphorylation in HT29-L23 human colorectal adenocarcinoma cells; assay: MLKL Phosphorylation High-Content Assay; type: cell-based; conditions: Homo sapiens
Summary of the method: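 Cells incubated six hours at 37° C., then phospho-MLKL (S358) immunostained overnight at 4° C. and imaged by high-content microscopy. Phosphorylation quantified as mean circ-ring average intensity ratio; IC50 and Ymax from 4-parameter logistic fits.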

[2] = biological target: T1, His-GST-TVMV-hRIPK1(1-324) (Homo sapiens, UniProt Q13546); assay: RIPK1 HTRF Binding Assay
T1 construct: The coding region of human RIPK1(1-324) flanked by NdeI site at 5′ end; made in house; host or cells: Spodoptera frugiperda (Sf9) insect cells, baculovirus
T1 sequence (Q13546 1-324): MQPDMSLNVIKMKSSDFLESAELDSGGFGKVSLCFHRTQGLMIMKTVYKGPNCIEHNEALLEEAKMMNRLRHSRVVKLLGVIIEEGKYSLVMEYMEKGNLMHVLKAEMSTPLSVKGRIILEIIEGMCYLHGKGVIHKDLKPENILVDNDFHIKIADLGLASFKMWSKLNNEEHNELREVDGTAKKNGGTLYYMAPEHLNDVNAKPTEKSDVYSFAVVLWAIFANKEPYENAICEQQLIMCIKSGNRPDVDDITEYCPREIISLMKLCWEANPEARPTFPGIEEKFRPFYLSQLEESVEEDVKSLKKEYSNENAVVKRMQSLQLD

[3] = x marks IC50 class 20-200 nM, read-out: pMLKL cell activity 20-200 nM
[4] = x marks IC50 class <20 nM, read-out: RIPK1 HTRF binding <20 nM
[5] = x marks IC50 class >200 nM, read-out: pMLKL cell activity >200 nM
[6] = x marks IC50 class 20-200 nM, read-out: RIPK1 HTRF binding 20-200 nM
[7] = x marks IC50 class <20 nM, read-out: pMLKL cell activity <20 nM

| Structure (SMILES) | IC50 [1, 3] | IC50 [2, 4] | IC50 [1, 5] | IC50 [2, 6] | IC50 [1, 7] |
| --- | --- | --- | --- | --- | --- |
| Cc1ncc(-c2ccn3nc(N)nc3c2)cc1C(=O)NCc1ncccc1OCC1CCCC1 [Example 12, 5-{2-amino-[1,2,4]triazolo[1,5-a]pyridin-7-yl}-N-{[3-(cyclopentylmethoxy)pyridin-2-yl]methyl}-2-methylpyridine-3-carboxamide] | 20 to 200 nM | < 20 nM |  |  |  |
| CCOc1ncc(-c2ccn3nc(N)nc3c2)cc1C(=O)NCc1c(F)cc(F)cc1OCC1CCCC1 [Example 13, 5-{2-Amino-[1,2,4]triazolo[1,5-a]pyridin-7-yl}-N-{[2-(cyclopentylmethoxy)-4,6-difluorophenyl]methyl}-2-ethoxypyridine-3-carboxamide] |  |  | > 200 nM | 20 to 200 nM |  |
| CCOc1ncc(-c2ccn3nc(N)nc3c2)cc1C(=O)NCc1cc(F)cc(F)c1OCC1CCCC1 [Example 14, 5-{2-Amino-[1,2,4]triazolo[1,5-a]pyridin-7-yl}-N-{[2-(cyclopentylmethoxy)-3,5-difluorophenyl]methyl}-2-ethoxypyridine-3-carboxamide] | 20 to 200 nM | < 20 nM |  |  |  |
| Cc1ncc(-c2ccn3nc(N)nc3c2)cc1C(=O)NCc1c(F)cccc1OCC1CCCC1 [Example 15, 5-{2-Amino-[1,2,4]triazolo[1,5-a]pyridin-7-yl}-N-{[2-(cyclopentylmethoxy)-6-fluorophenyl]methyl}-2-methylpyridine-3-carboxamide] |  | < 20 nM |  |  | < 20 nM |
| Cc1nc(C)c(-c2ccn3nc(N)nc3c2)cc1C(=O)NCc1ccccc1OC(C)C1CCCC1 (stereo not drawn) [Example 16, 5-{2-Amino-[1,2,4]triazolo[1,5-a]pyridin-7-yl}-N-{[2-(1-cyclopentylethoxy)phenyl]methyl}-2,6-dimethylpyridine-3-carboxamide] | 20 to 200 nM | < 20 nM |  |  |  |
| Cc1ncc(C(=O)NCc2ncccc2OC2CCCC2)cc1-c1ccn2nc(N)nc2c1 [Example 17, 5-{2-Amino-[1,2,4]triazolo[1,5-a]pyridin-7-yl}-N-{[3-(cyclopentyloxy)pyridin-2-yl]methyl}-6-methylpyridine-3-carboxamide] | 20 to 200 nM | < 20 nM |  |  |  |
| Cc1ncc(-c2ccn3nc(N)nc3c2)cc1C(=O)NCc1ccc(F)cc1OCC1CCCC1 [Example 18, 5-{2-Amino-[1,2,4]triazolo[1,5-a]pyridin-7-yl}-N-{[2-(cyclopentylmethoxy)-4-fluorophenyl]methyl}-2-methylpyridine-3-carboxamide] |  |  | > 200 nM | 20 to 200 nM |  |
| Nc1nc2cc(-c3cnc(C4CC4)c(C(=O)NCc4cccc(OC(F)(F)F)c4)c3)ccn2n1 [Example 19, 5-{2-Amino-[1,2,4]triazolo[1,5-a]pyridin-7-yl}-2-cyclopropyl-N-{[3-(trifluoromethoxy)phenyl]methyl}pyridine-3-carboxamide] | 20 to 200 nM |  |  | 20 to 200 nM |  |
| Cc1ncc(-c2ccn3nc(N)nc3c2)cc1C(=O)NCc1cc(F)ccc1OCC1CCCC1 [Example 20, 5-{2-Amino-[1,2,4]triazolo[1,5-a]pyridin-7-yl}-N-{[2-(cyclopentylmethoxy)-5-fluorophenyl]methyl}-2-methylpyridine-3-carboxamide] | 20 to 200 nM | < 20 nM |  |  |  |
| COc1ncc(-c2ccn3nc(N)nc3c2)cc1C(=O)NCc1cnccc1OC1CCCC1 [Example 21, 5-{2-Amino-[1,2,4]triazolo[1,5-a]pyridin-7-yl}-N-{[4-(cyclopentyloxy)pyridin-3-yl]methyl}-2-methoxypyridine-3-carboxamide] | 20 to 200 nM | < 20 nM |  |  |  |
| COc1ncc(-c2ccn3nc(N)nc3c2)cc1C(=O)NCc1cc(F)cc(F)c1OC(C)C [Example 22, 5-{2-Amino-[1,2,4]triazolo[1,5-a]pyridin-7-yl}-N-{[3,5-difluoro-2-(propan-2-yloxy)phenyl]methyl}-2-methoxypyridine-3-carboxamide] |  | < 20 nM |  |  | < 20 nM |
| COc1ncc(-c2ccn3nc(N)nc3c2)cc1C(=O)NCc1c(F)cccc1OC1CCC(C)C1 (stereo not drawn) [Example 23, 5-{2-Amino-[1,2,4]triazolo[1,5-a]pyridin-7-yl}-N-({2-fluoro-6-[(3-methylcyclopentyl)oxy]phenyl}methyl)-2-methoxypyridine-3-carboxamide] |  | < 20 nM |  |  | < 20 nM |
| Cc1ncc(-c2ccn3nc(N)nc3c2)cc1C(=O)NCc1ccc(F)cc1OCC1CC1 [Example 24, 5-{2-Amino-[1,2,4]triazolo[1,5-a]pyridin-7-yl}-N-{[2-(cyclopropylmethoxy)-4-fluorophenyl]methyl}-2-methylpyridine-3-carboxamide] |  |  | > 200 nM | 20 to 200 nM |  |
| COc1ncc(C(=O)NCc2c(F)cccc2OCC2CCC2)cc1-c1ccn2nc(N)nc2c1 [Example 25, 5-{2-Amino-[1,2,4]triazolo[1,5-a]pyridin-7-yl}-N-{[2-(cyclobutylmethoxy)-6-fluorophenyl]methyl}-6-methoxypyridine-3-carboxamide] | 20 to 200 nM | < 20 nM |  |  |  |
| COc1ncc(C(=O)NCc2c(F)cccc2OCC2CC2)cc1-c1ccn2nc(N)nc2c1 [Example 26, 5-{2-Amino-[1,2,4]triazolo[1,5-a]pyridin-7-yl}-N-{[2-(cyclopropylmethoxy)-6-fluorophenyl]methyl}-6-methoxypyridine-3-carboxamide] | 20 to 200 nM | < 20 nM |  |  |  |
| COc1ncc(C(=O)NCc2cc(F)ccc2OC2CCCC2)cc1-c1ccn2nc(N)nc2c1 [Example 27, 5-{2-Amino-[1,2,4]triazolo[1,5-a]pyridin-7-yl}-N-{[2-(cyclopentyloxy)-5-fluorophenyl]methyl}-6-methoxypyridine-3-carboxamide] |  | < 20 nM |  |  | < 20 nM |
| COc1ncc(C(=O)NCc2ccccc2OCC2CC2)cc1-c1ccn2nc(N)nc2c1 [Example 28, 5-{2-Amino-[1,2,4]triazolo[1,5-a]pyridin-7-yl}-N-{[2-(cyclopropylmethoxy)phenyl]methyl}-6-methoxypyridine-3-carboxamide] | 20 to 200 nM | < 20 nM |  |  |  |
| COc1ncc(-c2ccn3nc(N)nc3c2)cc1C(=O)NCc1c(F)cccc1OC(C)C [Example 29, 5-{2-Amino-[1,2,4]triazolo[1,5-a]pyridin-7-yl}-N-{[2-fluoro-6-(propan-2-yloxy)phenyl]methyl}-2-methoxypyridine-3-carboxamide] | 20 to 200 nM | < 20 nM |  |  |  |
| COc1ncc(-c2ccn3nc(N)nc3c2)cc1C(=O)NCc1ccccc1O[C@@H]1C[C@H]2CC[C@@H]1C2 [Example 30, 5-{2-Amino-[1,2,4]triazolo[1,5-a]pyridin-7-yl}-N-({2-[(1R,2R,4S)-bicyclo[2.2.1]heptan-2-yloxy]phenyl}methyl)-2-methoxypyridine-3-carboxamide] | 20 to 200 nM |  |  | 20 to 200 nM |  |
| COc1ncc(-c2ccn3nc(N)nc3c2)cc1C(=O)NCc1cc(F)ccc1OC(C)C [Example 31, 5-{2-Amino-[1,2,4]triazolo[1,5-a]pyridin-7-yl}-N-{[5-fluoro-2-(propan-2-yloxy)phenyl]methyl}-2-methoxypyridine-3-carboxamide] | 20 to 200 nM | < 20 nM |  |  |  |
| COc1ncc(-c2ccn3nc(N)nc3c2)cc1C(=O)NCc1ccccc1OC1CCC(C)C1 (stereo not drawn) [Example 32, 5-{2-Amino-[1,2,4]triazolo[1,5-a]pyridin-7-yl}-2-methoxy-N-({2-[(3-methylcyclopentyl)oxy]phenyl}methyl)pyridine-3-carboxamide] |  | < 20 nM |  |  | < 20 nM |
